Assay results as given in patent US20200289495A1, “METHODS OF INHIBITING ENDOTHELIN B RECEPTOR EXPRESSING TUMOR METASTASES” (ENB Therapeutics, Inc., priority 2020, published 2020).
Entries after “also recorded” stand apart in the source; their conditions may differ.

Assays:
[1] = tested on: SKMEL28 human melanoma cells; test: SKMEL28 human melanoma xenograft growth and lung metastasis in mice; type: in vivo
Protocol: FIGS. 4A and 4B. BQ788 inhibits melanoma growth and metastasis.
B0788 inhibits melanoma growth and metastasis (FIGS. 4A and 4B). […] Mice were implanted with 1×10^6 SKMEL28 human melanoma cells. Tumors were established for 10 days until palpable then 120 ng ([…]) BQ788 dissolved in DMSO was injected IP 3×per week×6 weeks. Mice were then sacrificed and lungs harvested and tumors weighed. A 75% reduction in tumor weight was observed.

[2] = Body weight of athymic nude mice under intranasal BQ788; type: in vivo
Protocol: FIG. 9. ETAR antagonist and Niacinamide mitigate weight loss from BQ788. Six week old athymic nude mice were administered the ETBR antagonist BQ788 intranasally in 20% DMSO at the indicated ascending doses over a period of 42 days. One group was additionally administered the ETAR antagonist Macitentan orally at a dose of 5 mg/kg daily. The drinking water of these mice was supplemented with the B vitamin niacinamide at a concentration of 0.3 mg/mL. […] Co-administration of the ETAR antagonist Macitentan with niacinamide supplementation mitigated this weight loss. […] Co-administration of ETAR antagonists and niacinamide with ETBR antagonists mitigated the adverse effects of ETBR antagonists when administered for therapeutic purposes.
ETAR antagonist and Niacinamide mitigate weight loss from B0788 (FIG. 9). Six week old athymic nude mice (n=3 per group) were administered the ETBR antagonist BQ788 intranasally in 20% DMSO at the indicated ascending doses over a period of 42 days. One group was additionally administered the ETAR antagonist Macitentan orally at a dose of 5 mg/kg daily. The drinking water of these mice was supplemented with the B vitamin niacinamide at a concentration of 0.3 mg/mL. […] Co-administration of the ETAR antagonist Macitentan with niacinamide supplementation mitigated this weight loss. […]

[3] = tested on: A375 human melanoma cells; test: A375 subcutaneous melanoma xenograft in Nu/J nude mice; type: in vivo; details: Dabrafenib 100 mg/Kg PO daily, alone or + BQ788 600 ng IP TIW; day 11, p<0.05
Protocol: FIG. 7. BQ788 synergizes with Dabrafenib in vivo. A375 human melanoma cells were implanted subcutaneously into the rear flank of Nu/J nude mice and allowed to grow to 150 mm3-200 mm3 prior to randomization and initiation of treatment. The mice received the following treatments: (1) vehicle (n=8), (2) Dabrafenib 100 mg/Kg PO daily (n=5), and (3) Dabrafenib+BQ788 600 ng IP TIW (n=5).
B0788 synergizes with a bRAF inhibitor in vivo (FIG. 7). A375 human melanoma cells (3×10^6) were implanted subcutaneously into the rear flank of Nu/J nude mice and allowed to grow to 150 mm3-200 mm3 prior to randomization and initiation of treatment. The treatment groups were as follows: (1) vehicle (n=8), Dabrafenib 100 mg/Kg PO daily (n=5), (2) Dabrafenib+BQ788 600 ng IP 3×per week (n=5).

[4] = tested on: melanoma cell lines overexpressing ETBR; test: Mouse melanoma brain metastasis model (xenografts of ETBR-overexpressing melanoma cell lines); type: in vivo, mice; details: 60 mg/kg/day
Protocol: FIGS. 5A, 5B, 5C, 5D, and 5E. ETBR antagonist inhibits melanoma brain metastasis in mice. […] In this study, lentiviral vectors were used to overexpress ETBR in melanoma cell lines, which were in turn used to implant xenografts in mice.
A192621 inhibits melanoma brain metastasis in mice (FIGS. 5A, 5B, 5C, 5D, and 5E). […] A192621 was administered at a dose of 60 mg/kg/day using a mouse melanoma model. […] In this study, lentiviral vectors were used to overexpress ETBR in melanoma cell lines, which were in turn used to implant xenografts in mice. […]

CCCC[C@@H](NC(=O)[C@@H](Cc1cn(C(=O)OC)c2ccccc12)NC(=O)[C@H](CC(C)(C)C)NC(=O)N1[C@H](C)CCC[C@@H]1C)C(=O)O [BQ788]
clearance of lung metastases ([1]; 120 ng (˜60 ug/kg) BQ788 in DMSO IP 3× per week × 6 weeks, lungs vs control mice): > 95%
apoptosis in melanoma tumor cells ([1]; FIGS. 4A and 4B): induces apoptosis
average weight loss relative to baseline body weight ([2]; BQ788 intranasally in 20% DMSO, ascending doses over 42 days, end of study): 5%
body weight / thriving ([2]; BQ788 intranasally over 42 days, alone or with Macitentan 5 mg/kg daily orally and niacinamide 0.3 mg/mL in drinking water): failed to thrive

CC(C)(C)c1nc(-c2cccc(NS(=O)(=O)c3c(F)cccc3F)c2F)c(-c2ccnc(N)n2)s1 [Dabrafenib]
tumor growth [3]: retarded the growth of tumors; also recorded: retarded tumor growth

CCCOc1ccc([C@H]2[C@H](C(=O)O)[C@@H](c3ccc4c(c3)OCO4)CN2CC(=O)Nc2c(CC)cccc2CC)cc1 [A192621, (2R,3R,4S)-4-(1,3-benzodioxol-5-yl)-1-[2-(2,6-diethylanilino)-2-oxoethyl]-2-(4-propoxyphenyl)pyrrolidine-3-carboxylic acid]
CNS melanoma tumors [4]: shrinks CNS melanoma tumors
brain melanoma metastases [4]: shrinks brain melanoma metastases
survival [4]: increases survival
